SMILES strings stand for the structures.

human CXCR3A, sequence (P49682 whole entry): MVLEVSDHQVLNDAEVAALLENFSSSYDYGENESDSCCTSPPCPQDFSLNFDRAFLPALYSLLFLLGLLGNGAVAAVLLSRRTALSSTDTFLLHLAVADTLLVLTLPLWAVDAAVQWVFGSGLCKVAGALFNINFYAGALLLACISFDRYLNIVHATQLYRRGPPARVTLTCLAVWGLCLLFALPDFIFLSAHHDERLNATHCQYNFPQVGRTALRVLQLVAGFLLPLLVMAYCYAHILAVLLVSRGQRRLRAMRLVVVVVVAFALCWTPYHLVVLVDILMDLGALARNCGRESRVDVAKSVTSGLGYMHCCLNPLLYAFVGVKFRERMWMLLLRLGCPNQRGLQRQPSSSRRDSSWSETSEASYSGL

In this test the target is human CXCR3A (Homo sapiens (Human), UniProt P49682). Description: FLIPR assay (inhibition of CXCL10-induced calcium signal). The test is classed as cell-based. The settings on record: engineered CHO-K1 cells expressing human CXCR3A coupled to Galpha(16); Fluo-4-AM; CXCL10 agonist 20 nM; mean values where determined several times. Put shortly:
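CHO-K1 cells expressing human CXCR3A coupled to Gα16 were loaded with Fluo-4-AM for 1 h in HBSS/20 mM Hepes pH 7.4 with probenecid. Compound was added, then CXCL10 (20 nM as dispensed). Baseline-subtracted peak fluorescence gave inhibition curves and IC50, averaged over repeats.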
On to `C[C@@H]1CN(c2ccc(Br)c3c2CN(C(=O)OCc2ccccc2)CC3)CCN1C(=O)Cn1cnc2cccnc21` [Example 144, 5-Bromo-8-[(R)-4-(2-imidazo[4,5-b]pyridin-3-yl-acetyl)-3-methyl-piperazin-1-yl]-3,4-dihydro-1H-isoquinoline-2-carboxylic acid benzyl ester], for which the IC50 worked out at 85.7 nM.
For `C[C@@H]1CN(c2ccc(C(F)(F)F)c3c2CN(C(=O)OCc2ccccc2)CC3)CCN1C(=O)Cn1cnc2cccnc21` [Example 145, 8-[(R)-4-(2-Imidazo[4,5-b]pyridin-3-yl-acetyl)-3-methyl-piperazin-1-yl]-5-trifluoromethyl-3,4-dihydro-1H-isoquinoline-2-carboxylic acid benzyl ester], the IC50 is 25.6 nM.
Regarding `C[C@@H]1CN(c2ccc(C#N)c3c2CN(C(=O)OCc2ccccc2)CC3)CCN1C(=O)Cn1cnc2cccnc21` [Example 146, 5-Cyano-8-[(R)-4-(2-imidazo[4,5-b]pyridin-3-yl-acetyl)-3-methyl-piperazin-1-yl]-3,4-dihydro-1H-isoquinoline-2-carboxylic acid benzyl ester], the IC50 came out at 15.6 nM.
Take `Cc1nc(C)n(CC(=O)N2CCN(c3cc(F)c(F)c4c3CN(c3cnc(C(F)(F)F)nc3)CC4)C[C@H]2C)n1` [Example 147, 1-{(R)-4-[5,6-Difluoro-2-(2-trifluoromethyl-pyrimidin-5-yl)-1,2,3,4-tetrahydro-isoquinolin-8-yl]-2-methyl-piperazin-1-yl}-2-(3,5-dimethyl-[1,2,4]triazol-1-yl)-ethanone]: the half-inhibitory concentration (IC50) amounted to 8.58 nM.
